Test results as given in patent publication US9206236B2, “Peptides for treating cancer” (Gene Signal International SA, priority 2010, dated 2015).
“Also recorded” adds a separate entry of the source. Where a SMILES comes first, the peptide text is derived from it. [ ]: non-standard residue; d: D form. pY = N[C@@H](Cc1ccc(OP(=O)(O)O)cc1)C(=O)O

Legend:
[1] = Solubility of peptides in 10% DMSO in PBS; type: physicochemical; settings: 1 mg of peptide/ml of 10% DMSO in PBS
Procedure: GS-1 as well as the control peptide GS-0 were solubilized in DMSO and the resulting solutions were diluted 10 times with phosphate buffer saline (PBS) to obtain a concentration of 1 mg of peptide/ml of 10% DMSO in PBS. At this concentration, all peptides were soluble in 10% DMSO.
GS-2 as well as the control peptide GS-0 were solubilized in DMSO and the resulting solutions were diluted 10 times with phosphate buffer saline (PBS) to obtain a concentration of 1 mg of peptide/ml of 10% DMSO in PBS. At this concentration, all peptides were soluble in 10% DMSO.

[2] = tested on: NCI-H460 tumors; test: NCI-H460 tumor xenograft in nude mice, tumor volume (Example 2); type: in vivo
Procedure: H460 cell line has cytology compatible with human Non-Small Cell Lung Cancer (NSCL). Cells were grown in MEM medium containing 10% FCS at 37° C., 5% CO2 humidified atmosphere. The absence of mycoplasms was confirmed by using the PCR Mycoplasma Detection kit (Takara). All experiments were reviewed by the Genopole's institutional animal care and use committee and were performed in accordance with institutional guidelines for animal care. Female BALB/c nu/nu mice (n=30) were used at 5-6 weeks of age. The animals were housed in laminar air-flow cabinets under pathogen-free conditions with a 12 h light/12 h dark schedule, and fed autoclaved standard chow and water ad libitum. The NCI-H460 human NSCL cell line was obtained from American Type Culture Collection (ATCC) and cells were grown in RPMI medium 1640 supplemented with 1 μM sodium pyruvate. Tumor cells (10^7 cells in 200 μl of HBSS) were injected subcutaneously into the right flanks of mice. After engraftment, tumor volume was measured by Vernier callipers, and calculated as described in Balsari A et al. (Balsari A et al. (2004) Eur J Cancer 40: 1275-1281). At tumor volume about 150 mm3, animals were randomized, and separated into five groups of five animals. Control mice (group 1) were intraperitoneally injected with vehicle (10% DMSO in buffer saline) every day. GS-0 was dissolved in vehicle and intraperitoneally injected (group 2) every day (12 injections). GS-1 was dissolved in vehicle and intraperitoneally injected (group 3) every day (12 injections). Tumor volume and body weight were measured every other day over the treatment period (12 days). GS-1 as well as the control peptide GS-0 were solubilized in DMSO and the resulting solutions were diluted 10 times with phosphate buffer saline (PBS) to obtain a concentration of 1 mg of peptide/ml of 10% DMSO in PBS. At this concentration, all peptides were soluble in 10% DMSO.

[3] = tested on: human microvascular endothelial cells (HMEC); test: In vitro angiogenesis assay (Matrigel tube formation); type: cell-based; settings: 500 μg/ml final concentration of peptide, images at 18 h
Procedure: Angiogenesis of human microvascular endothelial cells (HMEC) was induced in vitro using a Matrigel assay described by Al-Mahmood et al (2009, JPET, 2009; 58:933). This method is based on the differentiation of endothelial cells to form capillary structures on a Matrigel Matrix. Matrigel is prepared the Engelbreth-Holm-Swarm (EHS) mouse tumor, which represents a complex mixture of basement membrane proteins including type IV collagen, entactin, proteo-heparan sulfate and other growth factors.
Briefly, 250 μl of Matrigel were transferred to each well of a 24-well culture plate and incubated at 37° C. for 30 min to allow for the matrix solution to solidify. HMEC grown in complete growth medium EGM-2MV were harvested by trypsin, suspended in the same growth medium and 500 μl containing 70 000 cells were added on top of the solidified Matrigel in each well and in the presence or absence of peptide. Cells were maintained in a humidified atmosphere air containing 5% CO2 at 37° C. for 18-24 hrs. Endothelial tube formation was observed and photographed under an inverted light microscope.
The designed tyrosine phosphorylated and non phosphorylated peptides were tested for their influence onto the in vitro angiogenesis. The results of the in vitro angiogenesis assay were presented in FIG. 1, using HMEC and 500 μg/ml final concentration of each peptide.

[4] = tested on: mTOR; test: mTOR status in HMEC after incubation with peptides (anti-mTor antibody Ser2448); type: cell-based, human
Procedure: (§1) Human EC grown in EGM-2MV (80% confluence) were incubated with the peptides of the invention or vehicle for the indicated time, washed three times in cold PBS and directly lysed in 2 ml of ice-cold lysis buffer (10 mM Tris pH 7.5, 150 mM NaCl, 1 mM PMSF, 0.5 μg/ml leupeptin, 1 μg/ml pepstatin A, and 1 μg/ml aprotinin) by incubation for 30 min at 4° C. Cell lysate were spun at […] for 10 min, insoluble materials were discarded, and protein contents measured by Bradford assay of supernatants were adjusted. Cell lysate (1 ml) was precleared with 25 μl of protein G-plus agarose beads (Santa Cruz) for 30 min, and proteins were then immunoprecipitated by adding 2 μg of the indicated antibody and incubated for 1 hr. The immunocomplex was pulled down with protein G-plus agarose beads and the beads were washed three times with lysis buffer. The immunoprecipitates were separated by NuPAGE® 4-12% Bis-Tris gel electrophoresis under reducing conditions, transferred to PVDF membrane (Novex System, Invitrogen), and the membrane was blocked with 5% (w/v) non-fat milk in TBS containing 0.1% v/v Tween-20 for 1 hr.
The status of mTOR in the HMEC following incubation with peptides GS-0 and GS-1 was investigated.

[5] = target: T1, recruitment of the regulatory subunit (p85) of the enzyme PI-3K by IRS-1 (Homo sapiens, UniProt P27986); test: Recruitment of p85 of PI-3K by IRS-1 (IRS-1 immunoprecipitation, anti-p85 immunoblot) in HMEC; type: cell-based; settings: final concentration of peptide 500 μg/ml
T1 construct: endogenous in cells; host or cells: human microvascular endothelial cells (HMEC)
T1 sequence (P27986 whole entry): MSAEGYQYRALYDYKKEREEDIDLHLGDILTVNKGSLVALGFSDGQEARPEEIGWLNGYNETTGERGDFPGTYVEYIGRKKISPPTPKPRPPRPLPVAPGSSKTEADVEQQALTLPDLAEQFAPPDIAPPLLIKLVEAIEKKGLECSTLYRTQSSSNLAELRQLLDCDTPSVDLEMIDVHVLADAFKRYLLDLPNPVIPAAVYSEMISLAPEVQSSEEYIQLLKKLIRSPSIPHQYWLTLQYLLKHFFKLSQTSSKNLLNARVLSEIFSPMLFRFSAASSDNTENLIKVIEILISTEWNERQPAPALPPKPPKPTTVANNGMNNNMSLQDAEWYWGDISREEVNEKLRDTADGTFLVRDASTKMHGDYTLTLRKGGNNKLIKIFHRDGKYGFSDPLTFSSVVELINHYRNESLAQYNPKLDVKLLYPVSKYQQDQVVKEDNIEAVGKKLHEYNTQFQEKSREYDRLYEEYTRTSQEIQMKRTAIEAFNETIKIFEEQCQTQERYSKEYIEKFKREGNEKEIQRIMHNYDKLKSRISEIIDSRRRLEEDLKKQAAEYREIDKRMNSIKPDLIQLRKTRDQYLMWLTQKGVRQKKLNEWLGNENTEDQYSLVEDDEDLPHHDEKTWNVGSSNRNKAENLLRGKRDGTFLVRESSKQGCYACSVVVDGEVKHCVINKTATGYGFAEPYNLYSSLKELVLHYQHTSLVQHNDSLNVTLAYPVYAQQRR
Procedure: as §1
As it is widely admitted that the tyrosine phosphorylation of IRS-1 leads to its association with the regulatory subunit (p85) of the enzyme PI-3K, and this event lead to important increases in the enzymatic activity of this later, we have investigated the influence of the tyrosine phosphorylated and non phosphorylated peptides onto the recruitment of the regulatory subunit (p85) of the enzyme PI-3K by IRS-1. For that, human microvascular endothelial cells (HMEC) were incubated with the tyrosine phosphorylated and non phosphorylated peptides (final concentration of peptide 500 μg/ml) followed by cells lysis and immuoprecipitation of the protein IRS-1. The immunoprecipitates were then resolved in SDS-PAGE, proteins were transferred to membranes, and the membranes were immunoblotted with an anti-p85 PI3K monoclonal antibody.

[6] = Body weight and toxicity of mice bearing NCI-H460 tumors (Example 2); type: in vivo
Procedure: All experiments were reviewed by the Genopole's institutional animal care and use committee and were performed in accordance with institutional guidelines for animal care. Female BALB/c nu/nu mice (n=30) were used at 5-6 weeks of age. The animals were housed in laminar air-flow cabinets under pathogen-free conditions with a 12 h light/12 h dark schedule, and fed autoclaved standard chow and water ad libitum. […] Tumor cells (10^7 cells in 200 μl of HBSS) were injected subcutaneously into the right flanks of mice. […] At tumor volume about 150 mm3, animals were randomized, and separated into five groups of five animals. Control mice (group 1) were intraperitoneally injected with vehicle (10% DMSO in buffer saline) every day. GS-0 was dissolved in vehicle and intraperitoneally injected (group 2) every day (12 injections). GS-1 was dissolved in vehicle and intraperitoneally injected (group 3) every day (12 injections). Tumor volume and body weight were measured every other day over the treatment period (12 days).

**Q.** With CSCC[C@H](NC(=O)[C@H](Cc1ccccc1)NC(=O)[C@H](CCSC)NC(=O)[C@H](Cc1ccc(OP(=O)(O)O)cc1)NC(=O)CNC(C)=O)C(=O)N[C@@H](CO)C(N)=O [GS-1, GpYMFMS] (Ac-G[pY]MFMS-NH2) as the molecule, how does the “solubility in 10% DMSO” value [1] read?
**A.** Its value is “soluble”.

**Q.** And the “influence on the in vivo growth of the tumor NCI-H460 (in words)” value ([2]; 8 mg/kg i.p. daily for 12 days)?
**A.** The value was “highly significant and potent influence; also recorded: statistically significant and potent anti-tumoral activity”.

**Q.** And the “mean tumor volume at the end of treatment” value ([2]; 8 mg/kg i.p. daily for 12 days, n=5)?
**A.** Its value is 234.98 ± 69.22 mm^3.

**Q.** What about the Mean tumor volume D1 ([2]; Table 2, 8 mg/kg i.p. daily, day 1) of the same molecule?
**A.** The Mean tumor volume D1 was 114 mm³.

**Q.** What about the Mean tumor volume D3 ([2]; Table 2, 8 mg/kg i.p. daily, day 3) of the same molecule?
**A.** The Mean tumor volume D3 was 133 mm³.

**Q.** What about the Mean tumor volume D5 ([2]; Table 2, 8 mg/kg i.p. daily, day 5) of the same molecule?
**A.** Its Mean tumor volume D5 is 124 mm³.

**Q.** And the Mean tumor volume D7 ([2]; Table 2, 8 mg/kg i.p. daily, day 7)?
**A.** Its Mean tumor volume D7 is 141 mm³.

**Q.** And the Mean tumor volume D9 ([2]; Table 2, 8 mg/kg i.p. daily, day 9)?
**A.** Its Mean tumor volume D9 is 231 mm³.

**Q.** And the Mean tumor volume D11 ([2]; Table 2, 8 mg/kg i.p. daily, day 11)?
**A.** The Mean tumor volume D11 was 334 mm³.

**Q.** And the Mean tumor volume D13 ([2]; Table 2, 8 mg/kg i.p. daily, day 13)?
**A.** Its Mean tumor volume D13 is 235 mm³.

**Q.** What about the “in vitro angiogenesis-inhibitory activity” value [3] of the same molecule?
**A.** The value was “have in vitro angiogenesis-inhibitory activities”.

**Q.** And the “amounts of mTOR in HMEC relative to vehicle” value [4]?
**A.** Its value is “much less amounts of mTOR”.

**Q.** What about the “influence onto the recruitment of the regulatory subunit (p85) of PI3K by IRS-1” value [5] of the same molecule?
**A.** Its value is “very strong inhibitory effects”.

**Q.** And the “toxicity and body weight loss during treatment” value ([6]; 8 mg/kg intraperitoneally every day, 12 injections)?
**A.** Its value is “No toxicity and no body weight loss”.

**Q.** What about the “Mean body weight D1” value ([6]; Table 1, 8 mg/kg i.p. daily, day 1, in g) of the same molecule?
**A.** Its value is 23.58.

**Q.** And the “Mean body weight D3” value ([6]; Table 1, 8 mg/kg i.p. daily, day 3, in g)?
**A.** Its value is 23.27.

**Q.** And the “Mean body weight D5” value ([6]; Table 1, 8 mg/kg i.p. daily, day 5, in g)?
**A.** The value was 20.69.

**Q.** And the “Mean body weight D7” value ([6]; Table 1, 8 mg/kg i.p. daily, day 7, in g)?
**A.** The value was 23.29.

**Q.** And the “Mean body weight D9” value ([6]; Table 1, 8 mg/kg i.p. daily, day 9, in g)?
**A.** The value was 23.72.

**Q.** What about the “Mean body weight D11” value ([6]; Table 1, 8 mg/kg i.p. daily, day 11, in g) of the same molecule?
**A.** The value was 23.81.

**Q.** What about the “Mean body weight D13” value ([6]; Table 1, 8 mg/kg i.p. daily, day 13, in g) of the same molecule?
**A.** Its value is 23.48.

**Q.** For “DpYMTMQ (Ac-D[pY]MTMQ-NH2) [GS-3, tyrosine phosphorylated peptide]”, which “in vitro angiogenesis-inhibitory activity” value [3] is on record?
**A.** Its value is “have in vitro angiogenesis-inhibitory activities”.
